Data on seven compounds can be found in patent USRE50528E1, “Compounds and compositions for modulating EGFR mutant kinase activities” (Yuhan Corporation, priority 2014, dated 2025).

SMILES strings stand for the structures. Bounds are passed on as bounds.

The target of assay [1] is T1, p-EGFR del E746-A750 (Homo sapiens, UniProt P00533, DEL746-750).
T1 construct: phosphorylation of mutant EGFR in NSCLC lines PC9; endogenous in cells; host or cells: PC9
The experiment in a line: Western analysis, PC9 p-EGFR del E746-A750. It counts as cell-based. The settings on record: for Selectivity over wildtype: p-wildtype over p-EGFR del19: H1299 vs PC9; for IC50: molecular potency, 4 hours, read-out: PC9 p-EGFR del 19 (E746-A750).

Assay [2] has as its target T2, EGFR mutant Del19/T790M (Homo sapiens, UniProt P00533, DEL746-750/T790M).
T2 construct: truncated human JAK3, EGFR mutants such as del E746-A750; purchased Carna Biosciences
The experiment in a line: Kinase inhibition assay, EGFR del E746-A750/T790M. Format: biochemical. The conditions noted are these: read-out: EGFR mutants Del19/T790M.

The target of assay [3] is T3, p-EGFR L858R/T790M (Homo sapiens, UniProt P00533, L858R/T790M).
T3 construct: phosphorylation of mutant EGFR in NSCLC lines H1975; endogenous in cells; host or cells: H1975
The assay can be described thus: Western analysis, H1975 p-EGFR L858R/T790M. Format: cell-based. The settings on record: for Selectivity over wildtype: p-wildtype over p-EGFR L858R, T790M: H1299 vs H1975; for IC50: molecular potency, 4 hours.

Assay [4] addresses T4, EGFR mutant Del19 (E746-A750) (Homo sapiens, UniProt P00533, DEL746-750).
T4 construct: truncated human JAK3, EGFR mutants such as del E746-A750; purchased Carna Biosciences
The experiment in a line: Kinase inhibition assay, EGFR del E746-A750.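 Note: truncated human EGFR mutant kinase, two-hour preincubation with compound, then one-hour reaction with ATP and ULight-PolyGT peptide, LANCE Europium-antibody phosphorylation readout, IC50.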 Format: biochemical. The settings on record: read-out: EGFR mutants Del19 (E746-A750).

The subject of assay [5] is H2073 (EGFR wildtype). The experiment in a line: Cell viability assay, H2073.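 Note: NSCLC cell line whose survival relies on wildtype EGFR, treated with serially diluted compound, cytotoxic effect judged from remaining cell viability.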 It counts as cell-based. The conditions noted are these: NCI-H2073; cellular potency; 72-hour incubation; ATPLite. (In ATP-based viability assays light output follows the ATP content of the culture.)
Assay [6] relates to PC9 (EGFR del E746-A750 mutant). The assay can be described thus: Cell viability assay, PC9.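 For all read-outs here: NSCLC PC9 cells, whose viability relies on EGFR del E746-A750, exposed to serially diluted compound for 72 h at 37 °C, ATPLite read-out, IC50, H2073 as EGFR wildtype line.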 Format: cell-based. The settings on record: for Selectivity over wildtype, Wildtype vs mutant H2073/PC9 (fold): cellular potency ratio; for IC50: cellular potency, 72-hour incubation, ATPLite, read-out: EGFR Mutants PC9.
Assay [7] deals with T5, p-EGFR wildtype (Homo sapiens, UniProt P00533).
T5 construct: endogenous in cells; host or cells: H1299
The assay can be described thus: Western analysis, H1299 p-EGFR wildtype. Format: cell-based. The settings on record: molecular potency; 4 hours; 3 nM EGF ligand.

In assay [8] the target is T6, EGFR mutant L858R (Homo sapiens, UniProt P00533, L858R).
T6 construct: truncated human JAK3, EGFR mutants such as del E746-A750; purchased Carna Biosciences
The experiment in a line: Kinase inhibition assay, EGFR L858R.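 Note: truncated human EGFR L858R kinase with compound preincubation, ULight-PolyGT peptide phosphorylation read by Europium-antibody Lance detection, IC50.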 Format: biochemical. The conditions noted are these: read-out: EGFR mutants L858R.

Assay [9] deals with T7, KDR (Homo sapiens, UniProt P35968).
T7 construct: Purified human, full-length SYK, KDR; purchased Carna Biosciences
The assay can be described thus: Kinase inhibition assay, KDR.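 Note: purified full-length human KDR, 30 min preincubation with compound, then 1 h reaction with ATP and Ulight-Jak1 peptide substrate, phosphorylation read by Lance Europium antibody detection.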 The settings on record: biochemical potency. It counts as biochemical.

Assay [10] has as its target T8, EGFR mutant L858R/T790M (Homo sapiens, UniProt P00533, L858R/T790M).
T8 construct: truncated human JAK3, EGFR mutants such as del E746-A750; purchased Carna Biosciences
The assay can be described thus: Kinase inhibition assay, EGFR L858R/T790M.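 Note: truncated human enzyme preincubated two hours with compound, then one hour with one millimolar ATP and ULight-PolyGT peptide, Europium-labeled antibody detection, IC50.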 It counts as biochemical. The settings on record: read-out: EGFR mutants L858R/T790M.

The target in assay [11] is T9, SYK (Homo sapiens, UniProt P43405).
T9 construct: Purified human, full-length SYK, KDR; purchased Carna Biosciences
The assay can be described thus: Kinase inhibition assay, SYK.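 Note: purified full-length human SYK pre-incubated 30 min with compound, then ULight-TK peptide phosphorylation for 1 h, detected with Europium-labeled antibody in Lance buffer.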 Format: biochemical. The settings on record: biochemical potency.

The target in assay [12] is T10, EGFR mutant T790M (Homo sapiens, UniProt P00533, T790M).
T10 construct: truncated human JAK3, EGFR mutants such as del E746-A750; purchased Carna Biosciences
The experiment in a line: Kinase inhibition assay, EGFR mutant T790M.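 Note: truncated human EGFR mutant enzyme preincubated two hours with compound, then ATP plus ULight-PolyGT peptide for one hour, Europium-labeled antibody LANCE detection, IC50.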 The settings on record: biochemical potency.

Assay [13] concerns the target T11, JAK3 (Homo sapiens, UniProt P52333).
T11 construct: EGFR and JAK3 (JH1domain-catalytic) kinases, and mutant forms thereof; purchased Carna Biosciences
The experiment in a line: Kinase inhibition assay, JAK3.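 Note: IC50 against purified truncated human JAK3 preincubated with compound, then reacted with ATP and ULight-Jak1 peptide, phosphorylation read by Europium-labeled antibody LANCE detection.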 The conditions noted are these: biochemical potency.

Assay [14] relates to H1975 (EGFR L858R/T790M mutant). The experiment in a line: Cell viability assay, H1975.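 For all read-outs here: NSCLC cells whose survival relies on EGFR L858R/T790M, exposed 72 h to serially diluted compound, ATP-based viability readout, with the H2073 line (wildtype EGFR dependent) as wildtype comparator.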 The settings on record: for IC50: Homo sapiens, NCI-H1975, cellular potency, 72-hour incubation, ATPLite, read-out: EGFR Mutants H1975; for Selectivity over wildtype, Wildtype vs mutant H2073/H1975 (fold): cellular potency ratio. Format: cell-based.

T11 sequence (P52333 822-1111 limits assumed): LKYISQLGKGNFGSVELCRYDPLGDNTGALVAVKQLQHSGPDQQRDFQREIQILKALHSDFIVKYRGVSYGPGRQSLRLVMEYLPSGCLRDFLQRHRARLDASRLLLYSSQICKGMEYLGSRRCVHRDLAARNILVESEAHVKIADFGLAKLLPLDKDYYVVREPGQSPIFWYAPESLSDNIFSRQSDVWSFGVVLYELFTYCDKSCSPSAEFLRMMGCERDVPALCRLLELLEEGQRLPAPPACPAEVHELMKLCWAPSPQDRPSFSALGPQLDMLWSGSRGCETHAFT
T2 sequence (P00533 with tags, fused parts or gaps DEL746-750/T790M limits assumed): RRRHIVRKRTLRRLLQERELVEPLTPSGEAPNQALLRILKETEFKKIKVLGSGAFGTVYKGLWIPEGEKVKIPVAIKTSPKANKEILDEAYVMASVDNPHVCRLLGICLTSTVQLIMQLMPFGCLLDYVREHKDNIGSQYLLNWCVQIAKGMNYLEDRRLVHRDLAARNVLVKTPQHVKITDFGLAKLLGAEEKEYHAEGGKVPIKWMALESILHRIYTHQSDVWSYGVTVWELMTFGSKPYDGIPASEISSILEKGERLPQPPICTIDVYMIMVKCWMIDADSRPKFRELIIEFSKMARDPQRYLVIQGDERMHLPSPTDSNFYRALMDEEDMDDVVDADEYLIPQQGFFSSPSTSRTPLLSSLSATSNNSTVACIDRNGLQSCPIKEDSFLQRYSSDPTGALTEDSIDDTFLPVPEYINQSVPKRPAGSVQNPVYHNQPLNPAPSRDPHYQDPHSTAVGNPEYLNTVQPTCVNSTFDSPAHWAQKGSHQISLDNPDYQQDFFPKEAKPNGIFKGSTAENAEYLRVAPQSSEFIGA
T7 sequence (P35968 20-1356): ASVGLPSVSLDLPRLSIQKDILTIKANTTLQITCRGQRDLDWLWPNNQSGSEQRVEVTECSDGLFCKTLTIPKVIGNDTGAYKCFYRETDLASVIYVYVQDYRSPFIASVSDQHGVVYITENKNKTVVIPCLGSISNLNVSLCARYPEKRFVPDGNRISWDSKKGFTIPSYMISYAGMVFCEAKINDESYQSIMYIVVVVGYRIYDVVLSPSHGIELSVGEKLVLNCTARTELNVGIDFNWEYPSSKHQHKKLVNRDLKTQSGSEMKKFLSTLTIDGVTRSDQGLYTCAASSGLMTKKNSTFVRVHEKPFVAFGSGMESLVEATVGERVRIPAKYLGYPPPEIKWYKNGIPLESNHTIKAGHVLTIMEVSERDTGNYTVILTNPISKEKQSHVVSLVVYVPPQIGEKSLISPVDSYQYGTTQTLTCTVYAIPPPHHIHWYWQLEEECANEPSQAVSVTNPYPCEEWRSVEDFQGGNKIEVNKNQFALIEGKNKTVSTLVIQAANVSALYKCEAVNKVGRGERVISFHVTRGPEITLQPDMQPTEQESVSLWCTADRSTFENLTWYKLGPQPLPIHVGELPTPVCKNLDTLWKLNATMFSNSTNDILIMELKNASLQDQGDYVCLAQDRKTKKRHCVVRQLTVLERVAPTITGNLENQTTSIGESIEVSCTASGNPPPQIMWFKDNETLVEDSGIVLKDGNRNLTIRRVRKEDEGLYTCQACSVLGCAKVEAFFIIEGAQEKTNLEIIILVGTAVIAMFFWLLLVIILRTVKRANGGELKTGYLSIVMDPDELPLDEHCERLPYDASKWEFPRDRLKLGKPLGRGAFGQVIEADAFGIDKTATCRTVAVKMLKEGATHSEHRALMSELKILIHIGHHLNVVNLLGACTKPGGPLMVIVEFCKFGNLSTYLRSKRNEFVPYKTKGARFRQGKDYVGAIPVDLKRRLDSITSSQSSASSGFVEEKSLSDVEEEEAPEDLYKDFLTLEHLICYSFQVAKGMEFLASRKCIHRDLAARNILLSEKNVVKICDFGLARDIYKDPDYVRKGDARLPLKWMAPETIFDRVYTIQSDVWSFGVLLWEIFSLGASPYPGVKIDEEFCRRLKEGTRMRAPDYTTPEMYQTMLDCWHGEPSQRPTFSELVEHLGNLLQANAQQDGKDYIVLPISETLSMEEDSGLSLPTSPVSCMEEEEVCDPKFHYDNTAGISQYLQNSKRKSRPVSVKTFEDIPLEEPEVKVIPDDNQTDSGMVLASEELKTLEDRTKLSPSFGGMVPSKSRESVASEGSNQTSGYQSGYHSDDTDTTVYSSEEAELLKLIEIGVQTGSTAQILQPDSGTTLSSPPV
T10 sequence (P00533 669-1210 T790M limits assumed): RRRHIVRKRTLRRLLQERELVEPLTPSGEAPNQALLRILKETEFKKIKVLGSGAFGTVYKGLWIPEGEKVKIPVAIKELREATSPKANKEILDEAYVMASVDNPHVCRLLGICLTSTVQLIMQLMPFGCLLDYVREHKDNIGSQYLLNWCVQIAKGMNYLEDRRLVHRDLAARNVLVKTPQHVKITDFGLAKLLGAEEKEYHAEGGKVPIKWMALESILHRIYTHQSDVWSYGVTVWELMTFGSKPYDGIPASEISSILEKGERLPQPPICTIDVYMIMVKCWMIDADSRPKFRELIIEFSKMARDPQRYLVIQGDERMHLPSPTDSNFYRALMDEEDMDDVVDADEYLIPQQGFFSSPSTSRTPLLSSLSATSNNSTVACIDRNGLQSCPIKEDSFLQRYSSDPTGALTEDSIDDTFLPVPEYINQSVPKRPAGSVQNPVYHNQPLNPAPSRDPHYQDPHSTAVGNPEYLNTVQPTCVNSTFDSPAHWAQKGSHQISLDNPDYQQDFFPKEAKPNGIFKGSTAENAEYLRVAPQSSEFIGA
T4 sequence (P00533 with tags, fused parts or gaps DEL746-750 limits assumed): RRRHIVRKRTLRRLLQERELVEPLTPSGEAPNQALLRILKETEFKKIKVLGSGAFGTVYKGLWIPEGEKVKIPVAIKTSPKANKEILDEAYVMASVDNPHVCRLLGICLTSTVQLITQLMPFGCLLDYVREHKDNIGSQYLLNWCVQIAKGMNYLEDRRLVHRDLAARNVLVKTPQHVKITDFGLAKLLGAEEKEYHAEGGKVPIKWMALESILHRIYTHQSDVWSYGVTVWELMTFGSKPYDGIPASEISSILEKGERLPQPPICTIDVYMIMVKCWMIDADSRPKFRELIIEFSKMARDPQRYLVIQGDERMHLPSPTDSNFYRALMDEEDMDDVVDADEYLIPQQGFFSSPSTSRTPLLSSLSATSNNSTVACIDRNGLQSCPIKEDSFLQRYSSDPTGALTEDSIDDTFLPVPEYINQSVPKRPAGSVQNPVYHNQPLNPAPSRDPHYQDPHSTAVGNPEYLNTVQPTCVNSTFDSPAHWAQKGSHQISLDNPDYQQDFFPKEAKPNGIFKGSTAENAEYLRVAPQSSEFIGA
T8 sequence (P00533 669-1210 T790M/L858R limits assumed): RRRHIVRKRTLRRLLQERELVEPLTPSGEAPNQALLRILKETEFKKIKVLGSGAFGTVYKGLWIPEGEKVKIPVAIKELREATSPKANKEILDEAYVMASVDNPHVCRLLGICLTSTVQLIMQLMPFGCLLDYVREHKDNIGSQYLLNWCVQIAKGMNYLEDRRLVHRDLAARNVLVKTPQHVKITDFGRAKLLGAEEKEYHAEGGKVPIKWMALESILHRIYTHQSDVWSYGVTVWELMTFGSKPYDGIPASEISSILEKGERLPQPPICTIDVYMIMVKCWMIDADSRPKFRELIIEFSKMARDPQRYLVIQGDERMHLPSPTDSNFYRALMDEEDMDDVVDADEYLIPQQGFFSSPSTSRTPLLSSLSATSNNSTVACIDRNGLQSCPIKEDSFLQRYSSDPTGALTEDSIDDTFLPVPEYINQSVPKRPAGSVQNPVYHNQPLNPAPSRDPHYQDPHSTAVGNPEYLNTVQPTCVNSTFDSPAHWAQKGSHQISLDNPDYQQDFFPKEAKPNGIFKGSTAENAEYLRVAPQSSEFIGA
T3 sequence (P00533 25-1210 T790M/L858R): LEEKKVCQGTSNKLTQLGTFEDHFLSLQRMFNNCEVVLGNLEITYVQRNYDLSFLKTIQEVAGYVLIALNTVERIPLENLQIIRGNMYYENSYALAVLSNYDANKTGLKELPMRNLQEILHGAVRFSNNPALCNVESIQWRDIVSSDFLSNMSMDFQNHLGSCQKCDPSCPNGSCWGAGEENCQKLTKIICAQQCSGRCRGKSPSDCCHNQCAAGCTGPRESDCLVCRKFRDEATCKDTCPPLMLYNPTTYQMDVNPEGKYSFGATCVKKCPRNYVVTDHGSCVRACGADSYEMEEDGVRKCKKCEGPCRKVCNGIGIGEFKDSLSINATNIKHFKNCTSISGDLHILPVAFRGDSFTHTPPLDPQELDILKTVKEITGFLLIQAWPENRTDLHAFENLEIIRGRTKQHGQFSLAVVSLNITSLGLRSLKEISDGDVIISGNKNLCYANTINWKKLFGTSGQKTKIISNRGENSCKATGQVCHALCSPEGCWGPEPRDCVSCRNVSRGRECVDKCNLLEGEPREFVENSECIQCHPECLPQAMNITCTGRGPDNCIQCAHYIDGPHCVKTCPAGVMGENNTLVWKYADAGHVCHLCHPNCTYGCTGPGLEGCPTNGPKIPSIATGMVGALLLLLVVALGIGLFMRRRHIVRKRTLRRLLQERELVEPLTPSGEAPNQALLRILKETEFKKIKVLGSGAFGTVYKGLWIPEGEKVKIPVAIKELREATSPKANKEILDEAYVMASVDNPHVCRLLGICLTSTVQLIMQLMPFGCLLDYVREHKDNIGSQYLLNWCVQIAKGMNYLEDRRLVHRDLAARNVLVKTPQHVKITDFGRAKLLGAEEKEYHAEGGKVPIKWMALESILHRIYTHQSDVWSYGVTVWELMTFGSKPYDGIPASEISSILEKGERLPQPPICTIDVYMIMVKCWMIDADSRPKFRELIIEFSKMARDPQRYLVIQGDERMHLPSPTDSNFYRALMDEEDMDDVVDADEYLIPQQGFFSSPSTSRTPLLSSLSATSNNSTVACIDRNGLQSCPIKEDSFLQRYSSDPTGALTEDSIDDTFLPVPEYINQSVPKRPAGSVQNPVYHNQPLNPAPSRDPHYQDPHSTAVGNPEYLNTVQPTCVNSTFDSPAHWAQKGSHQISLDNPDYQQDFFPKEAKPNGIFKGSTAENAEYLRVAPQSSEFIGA

For the compound `C=CC(=O)Nc1cc(Nc2ncc(C)c(-n3cc(CN(C)C)c(C4CC4)n3)n2)c(OC)cc1N1CCOCC1` [Compound 122, N-(5-(4-(3-cyclopropyl-4-((dimethylamino)methyl)-1H-pyrazol-1-yl)-5-methylpyrimidin-2-ylamino)-4-methoxy-2-morpholinophenyl)acrylamide], the “Selectivity over wildtype: p-wildtype over p-EGFR del19” value in assay [1] is on record as 20-100 fold. Moreover, the IC50 in assay [1] is less than 20 nM; in assay [2] it was less than 20 nM; in assay [3] it was less than 20 nM; in assay [4], less than 20 nM; in assay [5], greater than 1000 nM; in assay [6], less than 20 nM. The IC50 was 201 to 1000 nM in [7]; less than 20 nM in assay [8]; greater than 1000 nM in assay [9]; less than 20 nM in [10]; 20 to 200 nM in [11]; less than 20 nM in assay [12]. Besides, the IC50 in assay [13] and in assay [14] was less than 20 nM each time. Further, in assay [3], the “Selectivity over wildtype: p-wildtype over p-EGFR L858R, T790M” value was 20-100 fold. Also, the “Selectivity over wildtype, Wildtype vs mutant H2073/PC9 (fold)” value (shortened to “Selectivity … vs mutant H2073/PC9 (fold)”) in assay [6] is listed as greater than 200 fold. For the same compound, the “Selectivity over wildtype, Wildtype vs mutant H2073/H1975 (fold)” value (from here on “Selectivity … vs mutant H2073/H1975 (fold)”) in [14] was greater than 200 fold.
As to `C=CC(=O)Nc1cc(Nc2nccc(-n3cc(CN4CCC4)c(C)n3)n2)c(OC)cc1N1CCOCC1` [Compound 14, N-(5-(4-(4-(azetidin-1-ylmethyl)-3-methyl-1H-pyrazol-1-yl)pyrimidin-2-ylamino)-4-methoxy-2-morpholinophenyl)acrylamide], the “Selectivity over wildtype: p-wildtype over p-EGFR del19” value in assay [1] is greater than 200 fold. Moreover, the IC50 in [1] is less than 20 nM; in [2] it was less than 20 nM; in [3], less than 20 nM; in [4] it was less than 20 nM; in assay [5], greater than 1000 nM; in assay [6], less than 20 nM. Further, the IC50 is greater than 1000 nM in assay [7]; less than 20 nM in assay [8]; greater than 1000 nM in assay [9]; less than 20 nM in [10]; 201 to 1000 nM in assay [11]; less than 20 nM in assay [12]. Also, the figures for the IC50 in [13] and in assay [14] were less than 20 nM and 20 to 200 nM, respectively. Moreover, in assay [3], the “Selectivity over wildtype: p-wildtype over p-EGFR L858R, T790M” value is 20-100 fold. In addition, the “Selectivity … vs mutant H2073/PC9 (fold)” value in [6] is on record as greater than 200 fold. In addition, the “Selectivity … vs mutant H2073/H1975 (fold)” value in assay [14] is given as 20-100 fold.
As to `C=CC(=O)Nc1cc(Nc2ncc(C)c(-n3cc(CN4CCC4)cn3)n2)c(OC)cc1N(C)CCN(C)C` [Compound 42, N-(5-(4-(4-(azetidin-1-ylmethyl)-1H-pyrazol-1-yl)-5-methylpyrimidin-2-ylamino)-2-((2-(dimethylamino)ethyl)(methyl)amino)-4-methoxyphenyl)acrylamide], the IC50 in assay [2] is less than 20 nM; in [4], less than 20 nM; in [5] it was greater than 1000 nM; in assay [6], 201 to 1000 nM; in [8], 20 to 200 nM; in assay [9], greater than 1000 nM. The IC50 in assay [10] is less than 20 nM; in [11], greater than 1000 nM; in [12], less than 20 nM; in [13], less than 20 nM; in assay [14], 20 to 200 nM. For the same compound, the “Selectivity … vs mutant H2073/PC9 (fold)” value in assay [6] was 20-100 fold. Besides, the “Selectivity … vs mutant H2073/H1975 (fold)” value in assay [14] is greater than 200 fold.
Turning to `C=CC(=O)Nc1cc(Nc2ncc(F)c(-n3cc(CN4CCC4)c(C)n3)n2)c(OC)cc1N1CCOCC1` [Compound 62, N-(5-(4-(4-(azetidin-1-ylmethyl)-3-methyl-1H-pyrazol-1-yl)-5-fluoropyrimidin-2-ylamino)-4-methoxy-2-morpholinophenyl)acrylamide], the IC50 is less than 20 nM in assay [2]; less than 20 nM in assay [4]; greater than 1000 nM in assay [5]; 20 to 200 nM in assay [6]; less than 20 nM in [8]; greater than 1000 nM in [9]. Moreover, the IC50 in [10] is less than 20 nM; in assay [11], greater than 1000 nM; in assay [12], less than 20 nM; in [13] it was less than 20 nM; in assay [14] it was 20 to 200 nM. Besides, in assay [6], the “Selectivity … vs mutant H2073/PC9 (fold)” value is greater than 200 fold. Moreover, in assay [14], the “Selectivity … vs mutant H2073/H1975 (fold)” value is listed as greater than 200 fold.
In the case of `C=CC(=O)Nc1cc(Nc2ncc(C)c(-n3cc(CN4CCC4)c(C)n3)n2)c(OC)cc1N1CCOCC1` [Compound 76, N-(5-(4-(4-(azetidin-1-ylmethyl)-3-methyl-1H-pyrazol-1-yl)-5-methylpyrimidin-2-ylamino)-4-methoxy-2-morpholinophenyl)acrylamide], the IC50 in assay [2] is less than 20 nM; in assay [4] it was less than 20 nM; in [5] it was greater than 1000 nM; in assay [6], 20 to 200 nM; in assay [8], less than 20 nM; in [9], greater than 1000 nM. Moreover, the IC50 is less than 20 nM in [10]; 201 to 1000 nM in assay [11]; less than 20 nM in assay [12]; less than 20 nM in assay [13]; 20 to 200 nM in assay [14]. Also, the “Selectivity … vs mutant H2073/PC9 (fold)” value in assay [6] is given as 101-200 fold. The “Selectivity … vs mutant H2073/H1975 (fold)” value in [14] is 101-200 fold.
Regarding `C=CC(=O)Nc1cc(Nc2ncc(C)c(-n3cc(C)c(CN4CC(O)C4)c3)n2)c(OC)cc1N1CCOCC1` [Compound 48, N-(5-(4-(3-((3-hydroxyazetidin-1-yl)methyl)-4-methyl-1H-pyrrol-1-yl)-5-methylpyrimidin-2-ylamino)-4-methoxy-2-morpholinophenyl)acrylamide], the IC50 was less than 20 nM in assay [2]; less than 20 nM in [4]; greater than 1000 nM in assay [5]; 201 to 1000 nM in [6]; 20 to 200 nM in assay [8]; greater than 1000 nM in assay [9]. Moreover, the IC50 is less than 20 nM in [10]; 201 to 1000 nM in [11]; less than 20 nM in assay [12]; less than 20 nM in [13]; 201 to 1000 nM in [14]. The “Selectivity … vs mutant H2073/PC9 (fold)” value in assay [6] is reported as less than 20 fold. In assay [14], the “Selectivity … vs mutant H2073/H1975 (fold)” value is recorded as less than 20 fold.
For the compound `C=CC(=O)Nc1cc(Nc2nccc(-n3cc(CN(C)C)c(C)n3)n2)c(OC)cc1N1CCN(CCF)CC1` [Compound 79, N-(5-(4-(4-((dimethylamino)methyl)-3-methyl-1H-pyrazol-1-yl)pyrimidin-2-ylamino)-2-(4-(2-fluoroethyl)piperazin-1-yl)-4-methoxyphenyl)acrylamide], the IC50 in [2] is less than 20 nM; in assay [4] it was less than 20 nM; in assay [5] it was greater than 1000 nM; in [6] it was 20 to 200 nM; in assay [8], less than 20 nM; in [9], greater than 1000 nM. For the same compound, the IC50 in [10] is less than 20 nM; in assay [11], 201 to 1000 nM; in [12], less than 20 nM; in [13], less than 20 nM; in assay [14], 20 to 200 nM. Moreover, the “Selectivity … vs mutant H2073/PC9 (fold)” value in assay [6] is 101-200 fold. For the same compound, the “Selectivity … vs mutant H2073/H1975 (fold)” value in [14] is on record as 101-200 fold.
